From ChEMBL document CHEMBL5136981, “Medicinal chemistry updates of novel HDACs inhibitors (2020 to present)” (Eur J Med Chem, 2022)
Blank lines part the entries; values can stand above or below the compound they belong to.

Assays:
[1] = target: von Hippel-Lindau disease tumor suppressor/Histone deacetylase 2 (Homo sapiens) (UniProt Q92769+P40337); assay: PROTAC activity at VHL/HDAC2 in human HCT-116 cells assessed as induction of HDAC1 degradation at 1 uM incubated for 24 hrs by Western blot analysis relative to control; format: cell-based
[2] = target: T1, von Hippel-Lindau disease tumor suppressor/Histone deacetylase 1 (Homo sapiens, UniProt P40337+Q13547); assay: PROTAC activity at VHL/LSD1/HDAC1/CoREST complex interaction (unknown origin) assessed as induction of HDAC1 degradation using Boc-(Ac)Lys-AMC as substrate incubated for 20 mins by fluorescence based assay
[3] = target: von Hippel-Lindau disease tumor suppressor/Histone deacetylase 1 (Homo sapiens) (UniProt Q13547+P40337); assay: PROTAC activity at VHL/HDAC1 in human HCT-116 cells assessed as induction of HDAC1 degradation at 1 uM incubated for 24 hrs by Western blot analysis relative to control; format: cell-based
[4] = target: T2, von Hippel-Lindau disease tumor suppressor/Histone deacetylase 3 (Homo sapiens, UniProt O15379+P40337); assay: PROTAC activity at VHL/HDAC3 in human HCT-116 cells assessed as induction of HDAC1 degradation at 1 uM incubated for 24 hrs by Western blot analysis relative to control; format: cell-based
Target sequence in this assay (O15379 whole entry, looked up): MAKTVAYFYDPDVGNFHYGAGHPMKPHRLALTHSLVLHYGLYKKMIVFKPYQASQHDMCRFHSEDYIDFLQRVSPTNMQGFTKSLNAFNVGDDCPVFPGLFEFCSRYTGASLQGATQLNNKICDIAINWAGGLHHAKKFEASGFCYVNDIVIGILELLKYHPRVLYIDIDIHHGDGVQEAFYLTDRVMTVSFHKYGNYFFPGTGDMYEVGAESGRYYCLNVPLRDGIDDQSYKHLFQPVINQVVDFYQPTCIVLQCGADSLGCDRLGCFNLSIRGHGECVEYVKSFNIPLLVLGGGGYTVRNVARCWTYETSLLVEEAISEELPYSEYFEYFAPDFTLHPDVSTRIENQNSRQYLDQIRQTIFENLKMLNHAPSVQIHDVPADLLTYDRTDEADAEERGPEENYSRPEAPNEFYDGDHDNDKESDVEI
Target sequence in this assay (P40337 whole entry, looked up): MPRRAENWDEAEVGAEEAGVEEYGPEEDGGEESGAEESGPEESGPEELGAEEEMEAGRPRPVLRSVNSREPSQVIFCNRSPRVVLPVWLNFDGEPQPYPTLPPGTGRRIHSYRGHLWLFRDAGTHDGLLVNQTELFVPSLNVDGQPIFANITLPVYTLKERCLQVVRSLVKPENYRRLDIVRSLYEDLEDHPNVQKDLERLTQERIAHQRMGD

[5] = target: T3, Protein deacetylase HDAC6 (Homo sapiens, UniProt Q9UBN7); assay: Inhibition of HDAC6 (unknown origin) incubated for 30 mins by fluorescence based assay
T3 sequence (Q9UBN7 whole entry): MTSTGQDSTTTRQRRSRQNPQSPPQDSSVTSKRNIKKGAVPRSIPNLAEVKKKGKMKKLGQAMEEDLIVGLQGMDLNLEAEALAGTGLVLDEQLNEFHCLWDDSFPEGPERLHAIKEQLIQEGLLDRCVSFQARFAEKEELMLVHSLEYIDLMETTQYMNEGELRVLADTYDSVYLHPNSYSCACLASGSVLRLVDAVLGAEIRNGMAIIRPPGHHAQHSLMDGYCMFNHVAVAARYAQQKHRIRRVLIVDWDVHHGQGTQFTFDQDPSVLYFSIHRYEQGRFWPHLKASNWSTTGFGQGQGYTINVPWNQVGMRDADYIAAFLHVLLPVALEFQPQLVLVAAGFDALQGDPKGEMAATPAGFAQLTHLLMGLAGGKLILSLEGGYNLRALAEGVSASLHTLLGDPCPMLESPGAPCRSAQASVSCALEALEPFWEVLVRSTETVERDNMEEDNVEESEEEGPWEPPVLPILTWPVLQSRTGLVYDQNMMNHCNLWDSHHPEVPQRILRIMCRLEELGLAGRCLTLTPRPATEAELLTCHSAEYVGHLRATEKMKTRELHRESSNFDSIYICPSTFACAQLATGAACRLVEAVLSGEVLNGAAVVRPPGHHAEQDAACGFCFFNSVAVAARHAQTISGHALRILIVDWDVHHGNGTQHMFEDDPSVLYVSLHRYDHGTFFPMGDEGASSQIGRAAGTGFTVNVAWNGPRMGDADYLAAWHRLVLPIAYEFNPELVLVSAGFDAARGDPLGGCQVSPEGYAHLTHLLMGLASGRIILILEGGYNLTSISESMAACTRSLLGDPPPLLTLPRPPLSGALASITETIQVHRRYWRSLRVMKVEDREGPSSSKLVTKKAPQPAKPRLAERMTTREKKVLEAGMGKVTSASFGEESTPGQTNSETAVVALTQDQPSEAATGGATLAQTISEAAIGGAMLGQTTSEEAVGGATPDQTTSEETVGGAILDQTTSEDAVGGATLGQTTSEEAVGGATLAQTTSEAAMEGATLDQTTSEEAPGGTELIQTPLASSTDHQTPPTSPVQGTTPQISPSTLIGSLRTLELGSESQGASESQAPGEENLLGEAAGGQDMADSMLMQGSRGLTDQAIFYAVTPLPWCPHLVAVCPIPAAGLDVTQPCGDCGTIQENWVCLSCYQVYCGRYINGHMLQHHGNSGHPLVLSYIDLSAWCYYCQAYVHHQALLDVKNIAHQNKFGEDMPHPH

Histone deacetylase 1 [6] = target: T4, Histone deacetylase 1 (Homo sapiens, UniProt Q13547); assay: Inhibition of HDAC1 (unknown origin) incubated for 30 mins by fluorescence based assay
Histone deacetylase 1 [7] = target: T4, Histone deacetylase 1; assay: Inhibition of recombinant human HDAC1 using fluorogenic acetylated peptide substrate incubated for 30 mins by microplate reader analysis
HeLa = assay: Antiproliferative activity against human HeLa cells assessed as cell growth inhibition incubated for 48 hrs by MTT assay; format: functional, cell-based
Homo sapiens = species on record: Homo sapiens; assay: Selectivity ratio of IC50 for recombinant human HDAC6 to IC50 for recombinant human HDAC1
[8] = target: T1, von Hippel-Lindau disease tumor suppressor/Histone deacetylase 1; assay: PROTAC activity at VHL/HDAC1 (unknown origin) by cell based assay
[9] = target: T2, von Hippel-Lindau disease tumor suppressor/Histone deacetylase 3; assay: PROTAC activity at VHL/HDAC3 (unknown origin) by cell based assay
Target sequence in this assay (O15379 whole entry): as the sequence (O15379 whole entry, looked up) above
Target sequence in this assay (P40337 whole entry): as the sequence (P40337 whole entry, looked up) above

[10] = target: T2, von Hippel-Lindau disease tumor suppressor/Histone deacetylase 3; assay: PROTAC activity at VHL/HDAC3 in human MDA-MB-468 cells assessed as induction of HDAC3 degradation incubated for 14 hrs by Western blot analysis; format: cell-based
Target sequence in this assay (O15379 whole entry): as the sequence (O15379 whole entry, looked up) above
Target sequence in this assay (P40337 whole entry): as the sequence (P40337 whole entry, looked up) above

[11] = target: von Hippel-Lindau disease tumor suppressor/Histone deacetylase 2 (Homo sapiens, UniProt P40337+Q92769); assay: PROTAC activity at VHL/HDAC2 (unknown origin) by cell based assay
Histone deacetylase 2 = Histone deacetylase 2 (Homo sapiens, UniProt Q92769); assay: Inhibition of recombinant human HDAC2 using fluorescent green substrate incubated for 30 mins by fluorescence based assay
Histone deacetylase 1 [12] = target: T4, Histone deacetylase 1; assay: Inhibition of recombinant human HDAC1 using fluorescent deacetylated substrate incubated for 15 mins by fluorescence based assay
[13] = Inhibition of recombinant human HDAC3/NCOR1 using fluorescent deacetylated substrate incubated for 15 mins by fluorescence based assay
[14] = Inhibition of His-tagged recombinant human HDAC1 expressed in baculovirus infected insect cells using SIRT1 deacetylase substrate incubated for 30 mins by Luminescence Glo assay
Histone deacetylase 1 [15] = target: T4, Histone deacetylase 1; assay: Inhibition of HDAC1 derived from human HeLa cell nuclear extract using Boc-Lys(Ac)-AMC as substrate by fluorescence based assay; format: cell-free
[16] = target: T3, Protein deacetylase HDAC6; assay: Inhibition of HDAC6 derived from human HeLa cell nuclear extract using Boc-Lys(Ac)-AMC as substrate by fluorescence based assay; format: cell-free
Histone deacetylase 1 [17] = target: T4, Histone deacetylase 1; assay: Inhibition of HDAC1 (unknown origin) using fluorimetric substrate incubated for 30 mins by fluorogenic assay
[18] = target: Protein cereblon/Histone deacetylase 1 (Homo sapiens, UniProt Q13547+Q96SW2); assay: PROTAC activity at CRBN/HDAC1 (unknown origin) by cell based assay
[19] = target: Protein cereblon/Protein deacetylase HDAC6 (Homo sapiens, UniProt Q96SW2+Q9UBN7); assay: PROTAC activity at CRBN/HDAC6 (unknown origin) by cell based assay
[20] = target: Protein cereblon/Histone deacetylase 2 (Homo sapiens, UniProt Q92769+Q96SW2); assay: PROTAC activity at CRBN/HDAC2 (unknown origin) by cell based assay
[21] = target: Protein cereblon/Histone deacetylase 3 (Homo sapiens, UniProt O15379+Q96SW2); assay: PROTAC activity at CRBN/HDAC3 (unknown origin) by cell based assay
Chain of Protein cereblon/Histone deacetylase 3 (O15379 whole entry): as the sequence (O15379 whole entry, looked up) above
Chain of Protein cereblon/Histone deacetylase 3 (Q96SW2 whole entry): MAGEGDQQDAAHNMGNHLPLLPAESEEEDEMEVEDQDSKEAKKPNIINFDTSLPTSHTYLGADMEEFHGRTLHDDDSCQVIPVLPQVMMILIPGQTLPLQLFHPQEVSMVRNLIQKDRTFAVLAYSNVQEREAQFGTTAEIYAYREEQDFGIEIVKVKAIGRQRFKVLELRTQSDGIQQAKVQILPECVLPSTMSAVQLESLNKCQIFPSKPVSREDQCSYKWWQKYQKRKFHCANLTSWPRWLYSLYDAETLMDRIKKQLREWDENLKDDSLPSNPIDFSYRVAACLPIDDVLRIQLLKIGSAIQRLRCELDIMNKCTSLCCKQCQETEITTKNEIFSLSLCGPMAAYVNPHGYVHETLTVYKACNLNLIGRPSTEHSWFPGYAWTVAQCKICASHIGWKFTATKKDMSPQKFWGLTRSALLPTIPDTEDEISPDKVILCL

T4 sequence (Q13547 whole entry): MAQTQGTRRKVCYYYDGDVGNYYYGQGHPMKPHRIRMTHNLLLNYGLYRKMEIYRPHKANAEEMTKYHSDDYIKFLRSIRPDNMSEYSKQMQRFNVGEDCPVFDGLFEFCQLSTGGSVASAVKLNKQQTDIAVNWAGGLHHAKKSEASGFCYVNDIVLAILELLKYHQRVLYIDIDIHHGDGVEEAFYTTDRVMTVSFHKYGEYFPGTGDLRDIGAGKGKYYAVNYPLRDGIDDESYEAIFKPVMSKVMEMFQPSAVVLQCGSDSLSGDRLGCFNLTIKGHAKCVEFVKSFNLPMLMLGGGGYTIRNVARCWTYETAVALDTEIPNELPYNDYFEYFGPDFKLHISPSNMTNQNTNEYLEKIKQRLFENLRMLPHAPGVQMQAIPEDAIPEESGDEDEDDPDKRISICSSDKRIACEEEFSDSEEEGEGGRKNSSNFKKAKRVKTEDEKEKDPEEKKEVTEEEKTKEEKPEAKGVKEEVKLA
T1 sequence (Q13547 whole entry): as above
T1 sequence (P40337 whole entry): as the sequence (P40337 whole entry, looked up) above
Chain of Protein cereblon/Histone deacetylase 1 (Q13547 whole entry): as the sequence (Q13547 whole entry) above
Chain of Protein cereblon/Histone deacetylase 1 (Q96SW2 whole entry): as the sequence (Q96SW2 whole entry) above
Chain of Protein cereblon/Protein deacetylase HDAC6 (Q96SW2 whole entry, one chain of several): as the sequence (Q96SW2 whole entry) above
Chain of Histone deacetylase 2 (Q92769 whole entry): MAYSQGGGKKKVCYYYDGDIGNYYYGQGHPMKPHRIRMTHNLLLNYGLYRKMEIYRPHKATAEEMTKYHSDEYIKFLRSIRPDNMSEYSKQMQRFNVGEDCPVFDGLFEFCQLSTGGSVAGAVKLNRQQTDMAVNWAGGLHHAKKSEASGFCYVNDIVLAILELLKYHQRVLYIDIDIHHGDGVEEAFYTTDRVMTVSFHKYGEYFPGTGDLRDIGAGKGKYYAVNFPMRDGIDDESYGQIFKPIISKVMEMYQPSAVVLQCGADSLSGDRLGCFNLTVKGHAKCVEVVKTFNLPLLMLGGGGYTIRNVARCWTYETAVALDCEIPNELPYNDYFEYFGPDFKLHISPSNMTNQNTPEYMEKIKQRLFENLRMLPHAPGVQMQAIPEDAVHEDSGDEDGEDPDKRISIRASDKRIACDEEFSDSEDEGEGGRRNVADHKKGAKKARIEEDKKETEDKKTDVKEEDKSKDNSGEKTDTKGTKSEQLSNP
Chain of Protein cereblon/Histone deacetylase 2 (Q92769 whole entry): as above
Chain of Protein cereblon/Histone deacetylase 2 (Q96SW2 whole entry): as the sequence (Q96SW2 whole entry) above
Chain of von Hippel-Lindau disease tumor suppressor/Histone deacetylase 2 (Q92769 whole entry): as the sequence (Q92769 whole entry) above
Chain of von Hippel-Lindau disease tumor suppressor/Histone deacetylase 2 (P40337 whole entry): as the sequence (P40337 whole entry, looked up) above
Chain of von Hippel-Lindau disease tumor suppressor/Histone deacetylase 1 (Homo sapiens) (P40337 whole entry, looked up): as above
Chain of von Hippel-Lindau disease tumor suppressor/Histone deacetylase 1 (Homo sapiens) (Q13547 whole entry, looked up): as the sequence (Q13547 whole entry) above
Chain of von Hippel-Lindau disease tumor suppressor/Histone deacetylase 2 (Homo sapiens) (P40337 whole entry, looked up): as the sequence (P40337 whole entry, looked up) above
Chain of von Hippel-Lindau disease tumor suppressor/Histone deacetylase 2 (Homo sapiens) (Q92769 whole entry, looked up): as the sequence (Q92769 whole entry) above

SMILES: COc1ccc2cc(C(=O)Oc3cccc(/C=C/C(=O)NO)c3)c(=O)oc2c1
IC50 (Histone deacetylase 1 [7]): 190 nM | IC50 (HeLa): 230 nM | Ratio IC50 (Homo sapiens): 26

SMILES: CCCNNC(=O)c1ccc(-c2ccc(NC(=O)CCCCCCC(=O)N[C@H](C(=O)N3C[C@H](O)C[C@H]3C(=O)N[C@@H](C)c3ccc(-c4scnc4C)cc3)C(C)(C)C)cc2)cc1
IC50 [8]: 650 nM | IC50 [9]: 350 nM | EC50 [10]: 42 nM | IC50 [11]: 1550 nM

SMILES: Nc1ccccc1NC(=O)c1ccc2ncccc2c1
IC50 (Histone deacetylase 2): 26000 nM | IC50 (Histone deacetylase 1 [12]): 18700 nM | IC50 [13]: 560 nM

SMILES: CCCCNNC(=O)c1ccc(-c2ccccc2)cc1
IC50 [14]: 90 nM

SMILES: CC(C)n1cnc2c(-c3cccc(OCCCC(=O)NO)c3)nc(N3CCOCC3)nc21
IC50 (Histone deacetylase 1 [15]): 82 nM | IC50 [16]: 24 nM

SMILES: Cc1ccc(C(=O)Nc2nc(C(=O)NO)co2)cc1
IC50 (Histone deacetylase 1 [17]): 10 nM

More lines, now with the values ahead:

Activity [1]: 50% | IC50 [2]: 16800 nM | Activity [3]: 50% | Activity [4]: 50%
SMILES: Cc1ncsc1-c1ccc(CNC(=O)[C@@H]2C[C@@H](O)CN2C(=O)[C@@H](NC(=O)CCCCCCCCCCC(=O)Nc2ccc(C(=O)Nc3ccccc3N)cc2)C(C)(C)C)cc1

IC50 [5]: 4.6 nM | IC50 (Histone deacetylase 1 [6]): 1.4 nM
SMILES: O=C(CCCCCCC(=O)Nc1nc2c(s1)C[C@@H](NC(=O)c1cccc3ccccc13)CC2)NO

IC50 [18]: 174 nM | IC50 [19]: 27 nM | IC50 [20]: 248 nM | IC50 [21]: 27 nM
SMILES: O=C(CCCCCCNC(=O)c1ccc(NC(=O)COCCOCCNC(=O)COc2cccc3c2C(=O)N(C2CCC(=O)NC2=O)C3=O)cc1)NO (centres undefined)
